Measurements: patent US9493448B2, “Cycloalkane derivatives” (Daiichi Sankyo Company, Limited, priority 2012, dated 2016)

Tests used:
hNav 1.7 = hNav 1.7 (Homo sapiens (Human), UniProt Q15858); experiment: Electrophysiological evaluation, automated patch clamp IonWorks Quattro (Population Patch Clamp mode); type: cell-based; conditions: HEK293A cells stably expressing hNav 1.7/β1/β2; response to second depolarization pulse, pre-pulse potential set to V1/2; read-out: hNav1.7 IC50
[1] = system: mice and rats affected by thermal hyperalgesia; experiment: Thermal hyperalgesia assay; type: in vivo; conditions: oral administration, constant dose, against the vehicle treatment group; latency to escape behaviors after thermal stimulation of hind paw;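 note: measurement times set by the study director and not disclosed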

Chain of hNav 1.7 (Q15858 whole entry): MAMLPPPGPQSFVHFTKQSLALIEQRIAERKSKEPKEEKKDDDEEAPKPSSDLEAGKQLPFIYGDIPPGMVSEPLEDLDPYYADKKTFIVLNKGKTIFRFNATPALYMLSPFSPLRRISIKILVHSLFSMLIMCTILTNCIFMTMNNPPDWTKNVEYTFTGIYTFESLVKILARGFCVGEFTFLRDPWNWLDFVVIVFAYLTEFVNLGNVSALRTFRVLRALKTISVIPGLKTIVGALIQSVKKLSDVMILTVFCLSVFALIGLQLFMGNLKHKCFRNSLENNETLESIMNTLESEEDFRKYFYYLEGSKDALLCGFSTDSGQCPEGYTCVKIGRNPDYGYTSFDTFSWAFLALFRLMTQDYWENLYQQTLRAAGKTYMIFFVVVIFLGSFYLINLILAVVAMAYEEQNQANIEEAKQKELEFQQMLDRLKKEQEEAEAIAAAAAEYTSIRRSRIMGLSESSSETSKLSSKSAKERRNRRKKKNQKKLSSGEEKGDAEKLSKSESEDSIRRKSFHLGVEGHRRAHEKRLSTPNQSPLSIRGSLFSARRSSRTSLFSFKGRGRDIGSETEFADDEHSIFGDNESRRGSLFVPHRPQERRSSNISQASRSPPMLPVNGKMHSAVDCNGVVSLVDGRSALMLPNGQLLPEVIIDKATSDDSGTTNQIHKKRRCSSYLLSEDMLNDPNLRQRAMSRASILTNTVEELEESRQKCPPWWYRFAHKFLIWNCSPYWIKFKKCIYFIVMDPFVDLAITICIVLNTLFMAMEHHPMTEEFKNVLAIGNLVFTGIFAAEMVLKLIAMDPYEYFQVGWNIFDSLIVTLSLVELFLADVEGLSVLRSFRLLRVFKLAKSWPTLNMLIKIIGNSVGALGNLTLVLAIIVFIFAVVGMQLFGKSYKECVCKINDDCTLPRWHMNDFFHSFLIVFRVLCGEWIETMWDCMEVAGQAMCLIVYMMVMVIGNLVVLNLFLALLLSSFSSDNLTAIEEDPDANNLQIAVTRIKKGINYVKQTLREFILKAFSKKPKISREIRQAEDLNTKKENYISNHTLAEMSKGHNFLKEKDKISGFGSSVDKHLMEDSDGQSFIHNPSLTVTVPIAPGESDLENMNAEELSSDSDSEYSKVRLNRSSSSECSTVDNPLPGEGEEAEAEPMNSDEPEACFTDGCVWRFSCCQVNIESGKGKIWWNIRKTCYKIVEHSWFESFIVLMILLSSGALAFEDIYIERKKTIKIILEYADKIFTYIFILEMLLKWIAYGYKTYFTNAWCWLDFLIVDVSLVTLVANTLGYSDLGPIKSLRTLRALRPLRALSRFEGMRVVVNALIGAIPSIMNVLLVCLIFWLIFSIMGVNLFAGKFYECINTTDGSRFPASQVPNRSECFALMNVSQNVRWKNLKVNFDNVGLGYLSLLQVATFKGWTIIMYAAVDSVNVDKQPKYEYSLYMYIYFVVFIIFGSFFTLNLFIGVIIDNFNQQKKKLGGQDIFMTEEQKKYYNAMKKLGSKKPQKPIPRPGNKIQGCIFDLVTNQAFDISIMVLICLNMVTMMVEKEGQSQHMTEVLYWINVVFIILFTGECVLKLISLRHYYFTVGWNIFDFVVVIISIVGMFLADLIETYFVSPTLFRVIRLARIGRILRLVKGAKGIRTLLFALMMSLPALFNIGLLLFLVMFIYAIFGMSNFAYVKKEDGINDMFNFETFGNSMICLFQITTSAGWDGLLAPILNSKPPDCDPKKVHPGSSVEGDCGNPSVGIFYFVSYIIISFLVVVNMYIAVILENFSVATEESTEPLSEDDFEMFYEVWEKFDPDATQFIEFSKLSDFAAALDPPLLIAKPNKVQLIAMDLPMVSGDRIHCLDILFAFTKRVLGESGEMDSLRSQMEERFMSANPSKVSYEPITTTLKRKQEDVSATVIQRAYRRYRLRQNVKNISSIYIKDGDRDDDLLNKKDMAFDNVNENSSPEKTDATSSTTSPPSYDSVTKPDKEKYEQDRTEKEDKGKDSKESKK
Chain of hNav 1.7 (Q07699 19-218 partner): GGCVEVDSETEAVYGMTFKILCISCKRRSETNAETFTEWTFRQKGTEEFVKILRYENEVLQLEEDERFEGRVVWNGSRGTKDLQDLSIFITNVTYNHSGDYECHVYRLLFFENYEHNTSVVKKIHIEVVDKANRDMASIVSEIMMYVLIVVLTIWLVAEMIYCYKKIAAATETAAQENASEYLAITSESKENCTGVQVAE
Chain of hNav 1.7 (O60939 30-215 partner): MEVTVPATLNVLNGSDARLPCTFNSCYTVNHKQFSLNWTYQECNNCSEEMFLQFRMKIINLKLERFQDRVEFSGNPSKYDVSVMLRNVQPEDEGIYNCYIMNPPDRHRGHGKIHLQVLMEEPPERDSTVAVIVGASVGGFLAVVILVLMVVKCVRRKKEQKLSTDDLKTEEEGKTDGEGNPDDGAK

Structure (SMILES) | IC50 (hNav 1.7) [µM] | Ratio of improving pain score (%) [1]
Cn1nccc1[C@H]1CCCC[C@@H]1Oc1ccc(S(=O)(=O)Nc2ccncn2)cc1C#N (relative stereo) [Example 56, 3-Cyano-4-{[(1S*,2R*)-2-(1-methyl-1H-pyrazol-5-yl)cyclohexyl]oxy}-N-(pyrimidin-4-yl)benzenesulfonamide] | 0.25 | B (“B” when the rate was 31 to 60%)
O=S(=O)(Nc1ccncn1)c1ccc(O[C@H]2CCCC[C@@H]2c2cn[nH]c2)c(F)c1F (relative stereo) [Example 83, 2,3-Difluoro-4-{[(1S*,2R*)-2-(1H-pyrazol-4-yl)cyclohexyl]oxy}-N-(pyrimidin-4-yl)benzenesulfonamide] | 0.65 | B (“B” when the rate was 31 to 60%)
Nc1n[nH]cc1[C@H]1CCCC[C@@H]1Oc1cc(F)c(S(=O)(=O)Nc2cscn2)c(F)c1 (relative stereo) [Example 116, 4-{[(1S*,2R*)-2-(3-Amino-1H-pyrazol-4-yl)cyclohexyl]oxy}-2,6-difluoro-N-(1,3-thiazol-4-yl)benzenesulfonamide] | 0.17 | B (“B” when the rate was 31 to 60%)
O=S(=O)(Nc1ccncn1)c1cc(Cl)c(O[C@H]2CCC[C@@H]2c2ccn[nH]2)cc1F [Example 150, 5-Chloro-2-fluoro-4-{[(1S,2R)-2-(1H-pyrazol-5-yl)cyclopentyl]oxy}-N-(pyrimidin-4-yl)benzenesulfonamide] | 0.021 | C (“C” when the rate was 0 to 30%)
CCn1nccc1[C@H]1CCC[C@@H]1Oc1cc(F)c(S(=O)(=O)Nc2ccncn2)c(F)c1 (relative stereo) [Example 50, 4-{[(1S*,2R*)-2-(1-Ethyl-1H-pyrazol-5-yl)cyclopentyl]oxy}-2,6-difluoro-N-(pyrimidin-4-yl)benzenesulfonamide] | 0.047 | B (“B” when the rate was 31 to 60%)
Cc1c(O[C@H]2CCCC[C@@H]2c2c[nH]nc2N)ccc(S(=O)(=O)Nc2ccncn2)c1F (relative stereo) [Example 73, 4-{[(1S*,2R*)-2-(3-Amino-1H-pyrazol-4-yl)cyclohexyl]oxy}-2-fluoro-3-methyl-N-(pyrimidin-4-yl)benzenesulfonamide] | 0.1 | A (“A” when the rate was 61 to 100%)
Cn1nccc1[C@H]1CCCC[C@@H]1Oc1cc(F)c(S(=O)(=O)Nc2nncs2)cc1Cl (relative stereo) [Example 86, 5-Chloro-2-fluoro-4-{[(1S*,2R*)-2-(1-methyl-1H-pyrazol-5-yl)cyclohexyl]oxy}-N-(1,3,4-thiadiazol-2-yl)benzenesulfonamide] | 0.036 | A (“A” when the rate was 61 to 100%)
Nc1cc([C@H]2CCCC[C@@H]2Oc2cc(F)c(S(=O)(=O)Nc3ccncn3)cc2F)ccn1 (relative stereo) [Example 35, 4-{[(1S*,2R*)-2-(2-Aminopyridin-4-yl)cyclohexyl]oxy}-2,5-difluoro-N-(pyrimidin-4-yl)benzenesulfonamide] | 0.099 | B (“B” when the rate was 31 to 60%)
O=S(=O)(Nc1ccncn1)c1c(F)cc(O[C@H]2CCCC[C@@H]2c2cn[nH]c2)cc1F [Example 171, 2,6-Difluoro-4-{[(1S,2R)-2-(1H-pyrazol-4-yl)cyclohexyl]oxy}-N-(pyrimidin-4-yl)benzenesulfonamide] | 0.043 | B (“B” when the rate was 31 to 60%)
Cn1nccc1[C@H]1CCC[C@@H]1Oc1cc(F)c(S(=O)(=O)Nc2ccnc(F)n2)c(F)c1 (relative stereo) [Example 111, 2,6-Difluoro-N-(2-fluoropyrimidin-4-yl)-4-{[(1S*,2R*)-2-(1-methyl-1H-pyrazol-5-yl)cyclopentyl]oxy}benzenesulfonamide] | 0.03 | A (“A” when the rate was 61 to 100%)

More lines, main results first:

IC50 (hNav 1.7) [µM] | Structure (SMILES) | Ratio of improving pain score (%) [1]
0.05 | Cn1nccc1[C@H]1CCC(F)(F)C[C@@H]1Oc1cc(F)c(S(=O)(=O)Nc2ccncn2)c(F)c1 (relative stereo) [Example 109, 4-{[(1S*,2R*)-5,5-Difluoro-2-(1-methyl-1H-pyrazol-5-yl)cyclohexyl]oxy}-2,6-difluoro-N-(pyrimidin-4-yl)benzenesulfonamide] | B (“B” when the rate was 31 to 60%)
0.078 | Cn1nccc1[C@H]1CCC[C@@H]1Oc1ccc(S(=O)(=O)Nc2ccnc(F)n2)c(F)c1 (relative stereo) [Example 114, 2-Fluoro-N-(2-fluoropyrimidin-4-yl)-4-{[(1S*,2R*)-2-(1-methyl-1H-pyrazol-5-yl)cyclopentyl]oxy}benzenesulfonamide] | B (“B” when the rate was 31 to 60%)
0.058 | Cn1nccc1[C@H]1CCC(F)(F)C[C@@H]1Oc1cc(F)c(S(=O)(=O)Nc2ccncn2)cc1Cl (relative stereo) [Example 141, 5-Chloro-4-{[(1S*,2R*)-5,5-difluoro-2-(1-methyl-1H-pyrazol-5-yl)cyclohexyl]oxy}-2-fluoro-N-(pyrimidin-4-yl)benzenesulfonamide] | A (“A” when the rate was 61 to 100%)
1.7 | O=S(=O)(Nc1ccncn1)c1ccc(O[C@H]2CCCC[C@@H]2c2cn[nH]c2)cc1F (relative stereo) [Example 108, 2-Fluoro-4-{[(1S*,2R*)-2-(1H-pyrazol-4-yl)cyclohexyl]oxy}-N-(pyrimidin-4-yl)benzenesulfonamide] | A (“A” when the rate was 61 to 100%)
0.083 | Cc1cc(S(=O)(=O)Nc2ccncn2)ccc1O[C@H]1CCC[C@@H]1c1ccnn1C (relative stereo) [Example 52, 3-Methyl-4-{[(1S*,2R*)-2-(1-methyl-1H-pyrazol-5-yl)cyclopentyl]oxy}-N-(pyrimidin-4-yl)benzenesulfonamide] | B (“B” when the rate was 31 to 60%)
92 | Cn1nccc1[C@@H]1CCC[C@H]1Oc1ccc(S(=O)(=O)Nc2ccncn2)c(F)c1 [Example 128, 2-Fluoro-4-{[(1R,2S)-2-(1-methyl-1H-pyrazol-5-yl)cyclopentyl]oxy}-N-(pyrimidin-4-yl)benzenesulfonamide] | B (“B” when the rate was 31 to 60%)
0.3 | Cn1nccc1[C@H]1CCC(F)(F)C[C@@H]1Oc1ccc(S(=O)(=O)Nc2ccncn2)c(F)c1 (relative stereo) [Example 110, 4-{[(1S*,2R*)-5,5-Difluoro-2-(1-methyl-1H-pyrazol-5-yl)cyclohexyl]oxy}-2-fluoro-N-(pyrimidin-4-yl)benzenesulfonamide] | B (“B” when the rate was 31 to 60%)
0.27 | CO[C@@H]1C[C@H](Oc2cc(F)c(S(=O)(=O)Nc3ccncn3)cc2F)[C@@H](c2ccnn2C)C1 (relative stereo) [Example 120, 2,5-Difluoro-4-{[(1S*,2R*,4S*)-4-methoxy-2-(1-methyl-1H-pyrazol-5-yl)cyclopentyl]oxy}-N-(pyrimidin-4-yl)benzenesulfonamide] | C (“C” when the rate was 0 to 30%)
0.021 | Cc1cc(S(=O)(=O)Nc2ccncn2)c(F)cc1O[C@H]1CC(F)(F)CC[C@@H]1c1cn[nH]c1 [Example 143, 4-{[(1S,2R)-5,5-Difluoro-2-(1H-pyrazol-4-yl)cyclohexyl]oxy}-2-fluoro-5-methyl-N-(pyrimidin-4-yl)benzenesulfonamide] | B (“B” when the rate was 31 to 60%)
0.19 | CCn1nccc1[C@H]1CCCC[C@@H]1Oc1ccc(S(=O)(=O)Nc2ccncn2)c(F)c1 (relative stereo) [Example 45, 4-{[(1S*,2R*)-2-(1-Ethyl-1H-pyrazol-5-yl)cyclohexyl]oxy}-2-fluoro-N-(pyrimidin-4-yl)benzenesulfonamide] | C (“C” when the rate was 0 to 30%)
0.03 | Cc1cc(S(=O)(=O)Nc2ccncn2)c(F)cc1O[C@H]1CC(F)(F)CC[C@@H]1c1ccnn1C [Example 137, 4-{[(1S,2R)-5,5-Difluoro-2-(1-methyl-1H-pyrazol-5-yl)cyclohexyl]oxy}-2-fluoro-5-methyl-N-(pyrimidin-4-yl)benzenesulfonamide] | A (“A” when the rate was 61 to 100%)
0.051 | Cn1nccc1[C@H]1CC(F)(F)C[C@@H]1Oc1cc(F)c(S(=O)(=O)Nc2ccncn2)c(F)c1 (relative stereo) [Example 135, 4-{[(1S*,2R*)-4,4-Difluoro-2-(1-methyl-1H-pyrazol-5-yl)cyclopentyl]oxy}-2,6-difluoro-N-(pyrimidin-4-yl)benzenesulfonamide] | B (“B” when the rate was 31 to 60%)
0.13 | Cn1nccc1[C@H]1CCC[C@@H]1Oc1ccc(S(=O)(=O)Nc2ccncn2)cc1Cl (relative stereo) [Example 23, 3-Chloro-4-({[(1S*,2R*)-2-(1-methyl-1H-pyrazol-5-yl)cyclopentyl]oxy}-N-(pyrimidin-4-yl)benzenesulfonamide] | A (“A” when the rate was 61 to 100%)
0.07 | Cn1nccc1[C@H]1CCCC[C@@H]1Oc1ccc(S(=O)(=O)Nc2ccncn2)c(F)c1Cl (relative stereo) [Example 79, 3-Chloro-2-fluoro-4-{[(1S*,2R*)-2-(1-methyl-1H-pyrazol-5-yl)cyclohexyl]oxy}-N-(pyrimidin-4-yl)benzenesulfonamide] | C (“C” when the rate was 0 to 30%)
0.034 | Cn1nccc1[C@H]1CCC(F)(F)C[C@@H]1Oc1cc(F)c(S(=O)(=O)Nc2nncs2)cc1Cl (relative stereo) [Example 134, 5-Chloro-4-{[(1S*,2R*)-5,5-difluoro-2-(1-methyl-1H-pyrazol-5-yl)cyclohexyl]oxy}-2-fluoro-N-(1,3,4-thiadiazol-2-yl)benzenesulfonamide] | B (“B” when the rate was 31 to 60%)
